Laboratory results from PubChem BioAssay AID1918957 (Molecular Pharmacology Branch, DTP, NCI, 2023).
“And” between values parts separate entries of the source, which are not always exact repeats. Equal values may be shown once.

Test system: NCI-H1876 complex spheroid viability
Assay: Anticancer human tumor NCI-H1876 cell line growth inhibition [LSD1];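 also: spheroids exposed to compounds for one week before readout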;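 as to viability, T/C: 100% = DMSO vehicle-treated spheroids so lower means fewer viable cells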
Settings: for viability, T/C: stronger effect = lower value
In short: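 Multicellular complex spheroids of tumor cells with human endothelial cells (HUVEC) and mesenchymal stem cells; the LSD1 inhibitor iadademstat was combined with standard-of-care or investigational agents. Top concentration at or near clinical Cmax, half-log dilutions; final DMSO ≤0.25%.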

[1] = curve of first compound, second compound 0.1 µM
[2] = curve of first compound, second compound 0.316 µM
[3] = curve of first compound, second compound 1 µM
[4] = curve of first compound, second compound 3.16 µM
[5] = curve of first compound, second compound 10 µM
[6] = second compound 0.1 µM, first compound 0.00316 µM
[7] = second compound 0.1 µM, first compound 0.01 µM
[8] = second compound 0.1 µM, first compound 0.0316 µM
[9] = second compound 0.1 µM, first compound 0.1 µM
[10] = second compound 0.316 µM, first compound 0.00316 µM
[11] = second compound 0.316 µM, first compound 0.01 µM
[12] = second compound 0.316 µM, first compound 0.0316 µM
[13] = second compound 0.316 µM, first compound 0.1 µM
[14] = second compound 1 µM, first compound 0.00316 µM
[15] = second compound 1 µM, first compound 0.01 µM
[16] = second compound 1 µM, first compound 0.0316 µM
[17] = second compound 1 µM, first compound 0.1 µM
[18] = second compound 3.16 µM, first compound 0.00316 µM
[19] = second compound 3.16 µM, first compound 0.01 µM
[20] = second compound 3.16 µM, first compound 0.0316 µM
[21] = second compound 3.16 µM, first compound 0.1 µM
[22] = second compound 10 µM, first compound 0.00316 µM
[23] = second compound 10 µM, first compound 0.01 µM
[24] = second compound 10 µM, first compound 0.0316 µM
[25] = second compound 10 µM, first compound 0.1 µM
[26] = second compound 0.1 µM, first compound 0.00949 µM
[27] = second compound 0.1 µM, first compound 0.03 µM
[28] = second compound 0.1 µM, first compound 0.0949 µM
[29] = second compound 0.1 µM, first compound 0.3 µM
[30] = second compound 0.316 µM, first compound 0.00949 µM
[31] = second compound 0.316 µM, first compound 0.03 µM
[32] = second compound 0.316 µM, first compound 0.0949 µM
[33] = second compound 0.316 µM, first compound 0.3 µM
[34] = second compound 1 µM, first compound 0.00949 µM
[35] = second compound 1 µM, first compound 0.03 µM
[36] = second compound 1 µM, first compound 0.0949 µM
[37] = second compound 1 µM, first compound 0.3 µM
[38] = second compound 3.16 µM, first compound 0.00949 µM
[39] = second compound 3.16 µM, first compound 0.03 µM
[40] = second compound 3.16 µM, first compound 0.0949 µM
[41] = second compound 3.16 µM, first compound 0.3 µM
[42] = second compound 10 µM, first compound 0.00949 µM
[43] = second compound 10 µM, first compound 0.03 µM
[44] = second compound 10 µM, first compound 0.0949 µM
[45] = second compound 10 µM, first compound 0.3 µM
[46] = second compound 0.1 µM, first compound 0.316 µM
[47] = second compound 0.1 µM, first compound 1 µM
[48] = second compound 0.316 µM, first compound 0.316 µM
[49] = second compound 0.316 µM, first compound 1 µM
[50] = second compound 1 µM, first compound 0.316 µM
[51] = second compound 1 µM, first compound 1 µM
[52] = second compound 3.16 µM, first compound 0.316 µM
[53] = second compound 3.16 µM, first compound 1 µM
[54] = second compound 10 µM, first compound 0.316 µM
[55] = second compound 10 µM, first compound 1 µM

## CC(C)CC(NC(=O)C(Cc1ccccc1)NC(=O)c1cnccn1)B(O)O (centres undefined) + NC1CC1c1ccc(-c2cccc(O)c2)cc1
[1]
  IC50: 0.406 nM
[2]
  IC50: 0.444 nM
[3]
  IC50: 0.446 nM
[4]
  IC50: 0.374 nM
[5]
  IC50: < 0.316 nM
Second compound 0.1 µM, first compound 0.000316 µM
  viability, T/C: 63.8%
Second compound 0.1 µM, first compound 0.001 µM
  viability, T/C: 0.34%
[6]
  viability, T/C: 0.19%
[7]
  viability, T/C: 0.14%
[8]
  viability, T/C: 0.14%
[9]
  viability, T/C: 0.24%
Second compound 0.316 µM, first compound 0.000316 µM
  viability, T/C: 70.6%
Second compound 0.316 µM, first compound 0.001 µM
  viability, T/C: 0.44%
[10]
  viability, T/C: 0.17%
[11]
  viability, T/C: 0.12%
[12]
  viability, T/C: 0.15%
[13]
  viability, T/C: 0.21%
Second compound 1 µM, first compound 0.000316 µM
  viability, T/C: 71.2%
Second compound 1 µM, first compound 0.001 µM
  viability, T/C: 0.42%
[14]
  viability, T/C: 0.22%
[15]
  viability, T/C: 0.31%
[16]
  viability, T/C: 0.13%
[17]
  viability, T/C: 0.22%
Second compound 3.16 µM, first compound 0.000316 µM
  viability, T/C: 58.4%
Second compound 3.16 µM, first compound 0.001 µM
  viability, T/C: 0.35%
[18]
  viability, T/C: 0.22%
[19]
  viability, T/C: 0.16%
[20]
  viability, T/C: 0.14%
[21]
  viability, T/C: 0.24%
Second compound 10 µM, first compound 0.000316 µM
  viability, T/C: 41.6%
Second compound 10 µM, first compound 0.001 µM
  viability, T/C: 0.43%
[22]
  viability, T/C: 0.48%
[23]
  viability, T/C: 0.28%
[24]
  viability, T/C: 0.26%
[25]
  viability, T/C: 0.34%

## CCc1c2c(nc3ccc(O)cc13)-c1cc3c(c(=O)n1C2)COC(=O)[C@]3(O)CC + NC1CC1c1ccc(-c2cccc(O)c2)cc1
[1]
  IC50: < 0.949 nM
[2]
  IC50: < 0.949 nM
[3]
  IC50: < 0.949 nM
[4]
  IC50: < 0.949 nM
[5]
  IC50: < 0.949 nM
Second compound 0.1 µM, first compound 0.000949 µM
  viability, T/C: 5.07%
Second compound 0.1 µM, first compound 0.003 µM
  viability, T/C: 3.61%
[26]
  viability, T/C: 1.59%
[27]
  viability, T/C: 0.3%
[28]
  viability, T/C: 0.22%
[29]
  viability, T/C: 0.31%
Second compound 0.316 µM, first compound 0.000949 µM
  viability, T/C: 5.4%
Second compound 0.316 µM, first compound 0.003 µM
  viability, T/C: 3.71%
[30]
  viability, T/C: 1.52%
[31]
  viability, T/C: 0.19%
[32]
  viability, T/C: 0.15%
[33]
  viability, T/C: 0.25%
Second compound 1 µM, first compound 0.000949 µM
  viability, T/C: 5.18%
Second compound 1 µM, first compound 0.003 µM
  viability, T/C: 3.15%
[34]
  viability, T/C: 1.5%
[35]
  viability, T/C: 0.39%
[36]
  viability, T/C: 0.6%
[37]
  viability, T/C: 0.3%
Second compound 3.16 µM, first compound 0.000949 µM
  viability, T/C: 5.73%
Second compound 3.16 µM, first compound 0.003 µM
  viability, T/C: 3.61%
[38]
  viability, T/C: 1.99%
[39]
  viability, T/C: 0.43%
[40]
  viability, T/C: 0.32%
[41]
  viability, T/C: 0.32%
Second compound 10 µM, first compound 0.000949 µM
  viability, T/C: 6.65%
Second compound 10 µM, first compound 0.003 µM
  viability, T/C: 4.79%
[42]
  viability, T/C: 3.56%
[43]
  viability, T/C: 0.81%
[44]
  viability, T/C: 0.56%
[45]
  viability, T/C: 0.86%

## Nc1ncn(C2CC(O)C(CO)O2)c(=O)n1 (centres undefined) + NC1CCC(NC2CC2c2ccccc2)CC1
[1]
  IC50: > 1000 nM
[2]
  IC50: > 1000 nM
[3]
  IC50: > 1000 nM
[4]
  IC50: > 1000 nM
[5]
  IC50: > 1000 nM
[6]
  viability, T/C: 104%
[7]
  viability, T/C: 109%
[8]
  viability, T/C: 99.7%
[9]
  viability, T/C: 97.5%
[46]
  viability, T/C: 98.7%
[47]
  viability, T/C: 96.2%
[10]
  viability, T/C: 103%
[11]
  viability, T/C: 98.8%
[12]
  viability, T/C: 99.8%
[13]
  viability, T/C: 98.5%
[48]
  viability, T/C: 92.5%
[49]
  viability, T/C: 86.6%
[14]
  viability, T/C: 102%
[15]
  viability, T/C: 109%
[16]
  viability, T/C: 100%
[17]
  viability, T/C: 97.9%
[50]
  viability, T/C: 93.5%
[51]
  viability, T/C: 92.2%
[18]
  viability, T/C: 98.6%
[19]
  viability, T/C: 104%
[20]
  viability, T/C: 102%
[21]
  viability, T/C: 97.6%
[52]
  viability, T/C: 92.6%
[53]
  viability, T/C: 95.8%
[22]
  viability, T/C: 99.3%
[23]
  viability, T/C: 100%
[24]
  viability, T/C: 96.7%
[25]
  viability, T/C: 106%
[54]
  viability, T/C: 92.8%
[55]
  viability, T/C: 97.1%

## COc1cc(C2c3cc4c(cc3C(OC3OC5COC(C)OC5C(O)C3O)C3COC(=O)C23)OCO4)cc(OC)c1O (centres undefined) + NC1CCC(NC2CC2c2ccccc2)CC1
[1]
  IC50: 61.4 nM
[2]
  IC50: 49.2 nM
[3]
  IC50: 48.1 nM
[4]
  IC50: 50.9 nM
[5]
  IC50: 43.9 nM
[26]
  viability, T/C: 91.7%
[27]
  viability, T/C: 79.6%
[28]
  viability, T/C: 31.1%
[29]
  viability, T/C: 23.5%
Second compound 0.1 µM, first compound 0.949 µM
  viability, T/C: 12.2%
Second compound 0.1 µM, first compound 3 µM
  viability, T/C: 11.8%
[30]
  viability, T/C: 89%
[31]
  viability, T/C: 68.6%
[32]
  viability, T/C: 24.9%
[33]
  viability, T/C: 22.3%
Second compound 0.316 µM, first compound 0.949 µM
  viability, T/C: 19.2%
Second compound 0.316 µM, first compound 3 µM
  viability, T/C: 10.7%
[34]
  viability, T/C: 91.7%
[35]
  viability, T/C: 66.4%
[36]
  viability, T/C: 26%
[37]
  viability, T/C: 22%
Second compound 1 µM, first compound 0.949 µM
  viability, T/C: 14.4%
Second compound 1 µM, first compound 3 µM
  viability, T/C: 18.9%
[38]
  viability, T/C: 94.5%
[39]
  viability, T/C: 64.8%
[40]
  viability, T/C: 29.7%
[41]
  viability, T/C: 29.5%
Second compound 3.16 µM, first compound 0.949 µM
  viability, T/C: 18.2%
Second compound 3.16 µM, first compound 3 µM
  viability, T/C: 13.7%
[42]
  viability, T/C: 82.7%
[43]
  viability, T/C: 62.5%
[44]
  viability, T/C: 24.3%
[45]
  viability, T/C: 23.4%
Second compound 10 µM, first compound 0.949 µM
  viability, T/C: 18.1%
Second compound 10 µM, first compound 3 µM
  viability, T/C: 14.2%

## CC1COCCN1c1cc(-c2ccnn2C)c2ccnc(-c3ccn[nH]3)c2n1 (centres undefined) + NC1CCC(NC2CC2c2ccccc2)CC1
[1]
  IC50: 19.9 nM
[2]
  IC50: 21.9 nM
[3]
  IC50: 19.1 nM
[4]
  IC50: 18.7 nM
[5]
  IC50: 9.68 nM
[6]
  viability, T/C: 86.9%
[7]
  viability, T/C: 70.5%
[8]
  viability, T/C: 34.9%
[9]
  viability, T/C: 25.3%
[46]
  viability, T/C: 23.4%
[47]
  viability, T/C: 12.1%
[10]
  viability, T/C: 83.5%
[11]
  viability, T/C: 79.7%
[12]
  viability, T/C: 35.7%
[13]
  viability, T/C: 28.7%
[48]
  viability, T/C: 11%
[49]
  viability, T/C: 21.8%
[14]
  viability, T/C: 80.5%
[15]
  viability, T/C: 68.3%
[16]
  viability, T/C: 35.9%
[17]
  viability, T/C: 15.2%
[50]
  viability, T/C: 11.6%
[51]
  viability, T/C: 12.7%
[18]
  viability, T/C: 77.4%
[19]
  viability, T/C: 66.8%
[20]
  viability, T/C: 36%
[21]
  viability, T/C: 16%
[52]
  viability, T/C: 12.4%
[53]
  viability, T/C: 12.7%
[22]
  viability, T/C: 64.5%
[23]
  viability, T/C: 50.2%
[24]
  viability, T/C: 31.1%
[25]
  viability, T/C: 19.9%
[54]
  viability, T/C: 16.7%
[55]
  viability, T/C: 11.4%

## NC1CC1c1ccc(-c2cccc(O)c2)cc1 (centres undefined)
Compound 0.1 µM
  viability, T/C: 94%
Compound alone, run of 02/21/2022
  IC50: > 10000 nM

## CC1COCCN1c1cc(-c2ccnn2C)c2ccnc(-c3ccn[nH]3)c2n1 (centres undefined)
Compound 0.00316 µM
  viability, T/C: 64.3% and 45%
Compound 0.01 µM
  viability, T/C: 59.2% and 33.4%
Compound 0.0316 µM
  viability, T/C: 32.8% and 13.7%
Compound 0.1 µM
  viability, T/C: 19.8% and 4.72%
Compound 0.316 µM
  viability, T/C: 10% and 3.12%
Compound 1 µM
  viability, T/C: 12.8% and 4.1%
Curve of compound
  IC50: 14.6 nM and < 3.16 nM
